Measurements from US9376425B2, “Heterocyclic compounds as MDM2 inhibitors for the treatment of cancer” (AMGEN INC., priority 2011, dated 2016).

Target: T1, human MDM2 (GST-hMDM2 aa 1-188), interaction with biotinylated-p53 (aa 1-83) (Homo sapiens, UniProt Q00987)
T1 construct: Amino acid residues 1-188 of human MDM2 were expressed; made in house; host or cells: Escherichia coli
Assay: Homogenous Time-Resolved Fluorescence Assay (HTRF1 assay), inhibition of HDM2-p53 interaction
Type: binding
Details: 2.5 nM GST-hMDM2, 5 nM biotinylated-p53, 200 mM KF
Experimental: Homogenous Time-Resolved Fluorescence Assay (HTRF1 Assay)
Residues 1-83 of human p53 were expressed as an amino-terminal AviTag™-TrxA-6xHis fusion protein (biotinylated p53) in E. coli. Each protein was purified from cell paste by affinity chromatography.
Specifically, 10 uL of GST-hMDM2 was incubated with 10 ul of diluted compound (various concentrations, serially diluted) in 10% DMSO for 20 minutes at room temperature. 20 uL of biotinylated-p53 was added to the GST-hMDM2+ compound mixture, and then incubated at room temperature for 60 min. 10 uL of detection buffer consisting of SA-XLent, anti-GST cryptate antibody and KF was added to GST-hMDM2, biotinylated-p53 and compound reaction and left at room temperature to reach equilibrium for >4 hrs. The final concentration of DMSO in the reaction was 2%. Time-resolved fluorescence readings were measured on a microplate multilabel reader. Percentage of inhibition was calculated relative to nutlin-3.

T1 sequence (Q00987 1-188): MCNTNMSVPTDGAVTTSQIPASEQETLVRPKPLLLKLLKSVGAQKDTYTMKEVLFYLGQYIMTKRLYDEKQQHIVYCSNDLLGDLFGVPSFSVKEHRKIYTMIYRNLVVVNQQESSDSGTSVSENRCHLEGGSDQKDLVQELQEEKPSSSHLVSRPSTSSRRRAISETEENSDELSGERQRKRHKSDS

With O=C(O)C[C@@H]1O[C@H](c2cccc(Cl)c2)[C@@H](c2cc3ccccc3[nH]2)N(CC2CC2)C1=O (single isomer, unassigned) [Example 2, 2-((2S,5R,6R)-6-(3-Chlorophenyl)-4-(cyclopropylmethyl)-5-(1H-indol-2-yl)-3-oxomorpholin-2-yl)acetic acid or 2-((2R,5R,6R)-6-(3-Chlorophenyl)-4-(cyclopropylmethyl)-5-(1H-indol-2-yl)-3-oxomorpholin-2-yl)acetic acid] the IC50 was 31400 nM.
For O=C(O)C[C@@H]1O[C@H](c2cccc(Cl)c2)[C@@H](c2ccc(Cl)cn2)N(CC2CC2)C1=O (single isomer, unassigned) [Example 7], the IC50 was 1100 nM.
Compound O=C(O)C[C@H]1OC(c2cccc(Cl)c2)[C@@H](c2ccc(Cl)cn2)N(CC2CC2)C1=O (single isomer, unassigned) [Example 8] has an IC50 of 1600 nM.
With C[C@H](C1CCCCC1)N1C(=O)[C@H](CC(=O)O)O[C@H](c2cccc(Cl)c2)[C@H]1c1ccc(Cl)cc1 (single isomer, unassigned) [Example 18, 2-((2S,5R,6R)-6-(3-chlorophenyl)-5-(4-chlorophenyl)-4-((R)-1-cyclohexylethyl)-3-oxomorpholin-2-yl)acetic acid or 2-((2S,5R,6R)-6-(3-Chlorophenyl)-5-(4-chlorophenyl)-4-((S)-1-cyclohexylethyl)-3-oxomorpholin-2-yl)acetic acid] the IC50 was 100 nM.
C[C@@H](C1CCCCC1)N1C(=O)[C@H](CC(=O)O)O[C@H](c2cccc(Cl)c2)[C@H]1c1ccc(Cl)cc1 (single isomer, unassigned) [Example 19, 2-((2S,5R,6R)-6-(3-chlorophenyl)-5-(4-chlorophenyl)-4-((S)-1-cyclohexylethyl)-3-oxomorpholin-2-yl)acetic acid or 2-((2S,5R,6R)-6-(3-chlorophenyl)-5-(4-chlorophenyl)-4-((R)-1-cyclohexylethyl)-3-oxomorpholin-2-yl)acetic acid] gave an IC50 of 600 nM.
For CC[C@H](C(=O)OC(C)(C)C)N1C(=O)[C@H](CC(=O)O)O[C@H](c2cccc(Cl)c2)[C@H]1c1ccc(Cl)cc1 (single isomer, unassigned) [Example 30], the IC50 was 1800 nM.
CC[C@@H](C(=O)OC(C)(C)C)N1C(=O)[C@H](CC(=O)O)O[C@H](c2cccc(Cl)c2)[C@H]1c1ccc(Cl)cc1 (single isomer, unassigned) [Example 31] showed an IC50 of 100 nM.
In the case of CC[C@@H](C(=O)OC(C)(C)C)N1C(=O)[C@@H](CC(=O)O)O[C@H](c2cccc(Cl)c2)[C@H]1c1ccc(Cl)cc1 (single isomer, unassigned) [Example 32], the IC50 is reported as 100 nM.
CC[C@H](C(=O)OC(C)(C)C)N1C(=O)[C@@H](CC(=O)O)O[C@H](c2cccc(Cl)c2)[C@H]1c1ccc(Cl)cc1 (single isomer, unassigned) [Example 33] was tested, and the IC50 was 1100 nM.
With O=C(O)C[C@H]1O[C@H](c2cccc(Cl)c2)[C@@H](c2ccc(Cl)cc2F)N(CC2CC2)C1=O (single isomer, unassigned) [Example 62] the IC50 was 900 nM.
Compound O=C(O)CC1O[C@H](c2cccc(Cl)c2)[C@@H](c2ccc(Br)cc2)N(CC2CC2)C1=O (single isomer, unassigned) [Example 67] has an IC50 of 17500 nM.
Work on O=C(O)CC1O[C@H](c2cccc(Cl)c2)[C@@H](c2ccc(Br)cc2)N(CC2CC2)C1=O (single isomer, unassigned) [Example 68] yielded an IC50 of 14200 nM.
For O=C(O)CC1O[C@H](c2cccc(Cl)c2)[C@@H](c2ccc(Cl)nc2)N(CC2CC2)C1=O (single isomer, unassigned) [Example 71], the IC50 was 3100 nM.
O=C(O)CC1O[C@H](c2cccc(Cl)c2)[C@@H](c2ccc(Cl)nc2)N(CC2CC2)C1=O (single isomer, unassigned) [Example 72] gave an IC50 of 1500 nM.
With COc1ccc([C@@H]2[C@@H](c3cccc(Cl)c3)OC(CC(=O)O)C(=O)N2CC2CC2)cn1 (single isomer, unassigned) [Example 73] the IC50 was 11600 nM.
Compound COc1ccc([C@@H]2[C@@H](c3cccc(Cl)c3)OC(CC(=O)O)C(=O)N2CC2CC2)cn1 (single isomer, unassigned) [Example 74] has an IC50 of 4500 nM.
In the case of COc1ccc([C@@H]2[C@@H](c3cccc(Cl)c3)OC(CC(=O)O)C(=O)N2CC2CC2)cc1 (single isomer, unassigned) [Example 75], the IC50 is reported as 3700 nM.
In the case of COc1ccc([C@@H]2[C@@H](c3cccc(Cl)c3)OC(CC(=O)O)C(=O)N2CC2CC2)cc1 (single isomer, unassigned) [Example 76], the IC50 is reported as 1400 nM.
Work on O=C(O)CC1O[C@H](c2cccc(Cl)c2)[C@@H](c2ccc(Cl)c(F)c2)N(CC2CC2)C1=O (single isomer, unassigned) [Example 77] yielded an IC50 of 300 nM.
With O=C(O)CC1O[C@H](c2cccc(Cl)c2)[C@@H](c2ccc(Cl)c(F)c2)N(CC2CC2)C1=O (single isomer, unassigned) [Example 78] the IC50 was 800 nM.
O=C(O)CC1O[C@H](c2cccc(Cl)c2)[C@@H](c2ccc(Cl)cc2Br)N(CC2CC2)C1=O (single isomer, unassigned) [Example 79] showed an IC50 of 70200 nM.
O=C(O)CC1O[C@H](c2cccc(Cl)c2)[C@@H](c2ccc(Cl)cc2Br)N(CC2CC2)C1=O (single isomer, unassigned) [Example 80] was tested, and the IC50 was 14800 nM.
O=C(O)CC1O[C@H](c2cccc(Cl)c2)[C@@H](c2ccc(C(F)(F)F)nc2)N(CC2CC2)C1=O (single isomer, unassigned) [Example 81] was tested, and the IC50 was 15700 nM.
O=C(O)CC1O[C@H](c2cccc(Cl)c2)[C@@H](c2ccc(C(F)(F)F)nc2)N(CC2CC2)C1=O (single isomer, unassigned) [Example 82] showed an IC50 of 30000 nM.
In the case of O=C(O)CC1O[C@H](c2cc(F)cc(Cl)c2)[C@@H](c2ccc(Cl)cc2)N(CC2CC2)C1=O (single isomer, unassigned) [Example 83], the IC50 is reported as 300 nM.
O=C(O)CC1O[C@H](c2cc(F)cc(Cl)c2)[C@@H](c2ccc(Cl)cc2)N(CC2CC2)C1=O (single isomer, unassigned) [Example 84] gave an IC50 of 300 nM.
Compound O=C(O)CC1O[C@H](c2cccc(F)c2)[C@@H](c2ccc(Cl)cc2)N(CC2CC2)C1=O (single isomer, unassigned) [Example 85] has an IC50 of 1600 nM.
With O=C(O)CC1O[C@H](c2cccc(F)c2)[C@@H](c2ccc(Cl)cc2)N(CC2CC2)C1=O (single isomer, unassigned) [Example 86] the IC50 was 800 nM.
With O=C(O)CC1O[C@H](c2cncc(Cl)c2)[C@@H](c2ccc(Cl)cc2)N(CC2CC2)C1=O (single isomer, unassigned) [Example 87] the IC50 was 1800 nM.
For O=C(O)CC1O[C@H](c2cncc(Cl)c2)[C@@H](c2ccc(Cl)cc2)N(CC2CC2)C1=O (single isomer, unassigned) [Example 88], the IC50 was 2100 nM.
For COc1cccc([C@H]2OC(CC(=O)O)C(=O)N(CC3CC3)[C@@H]2c2ccc(Cl)cc2)c1 (single isomer, unassigned) [Example 89], the IC50 was 6100 nM.
COc1cccc([C@H]2OC(CC(=O)O)C(=O)N(CC3CC3)[C@@H]2c2ccc(Cl)cc2)c1 (single isomer, unassigned) [Example 90] gave an IC50 of 3500 nM.
In the case of O=C(O)CC1O[C@H](c2ccnc(Cl)c2)[C@@H](c2ccc(Cl)cc2)N(CC2CC2)C1=O (single isomer, unassigned) [Example 91], the IC50 is reported as 600 nM.
With COc1cncc([C@H]2OC(CC(=O)O)C(=O)N(CC3CC3)[C@@H]2c2ccc(Cl)cc2)c1 (single isomer, unassigned) [Example 92] the IC50 was 19500 nM.
O=C(O)CC1O[C@H](c2cc(Cl)cc(Cl)c2)[C@@H](c2ccc(Cl)cc2)N(CC2CC2)C1=O (single isomer, unassigned) [Example 93] gave an IC50 of 300 nM.
O=C(O)CC1O[C@H](c2ccc(F)c(Cl)c2)[C@@H](c2ccc(Cl)cc2)N(CC2CC2)C1=O (single isomer, unassigned) [Example 94] gave an IC50 of 600 nM.
O=C(O)CC1O[C@H](c2cccc(OC(F)(F)F)c2)[C@@H](c2ccc(Cl)cc2)N(CC2CC2)C1=O (single isomer, unassigned) [Example 95] was tested, and the IC50 was 33500 nM.
With O=C(O)CC1O[C@H](c2cc(F)cc(F)c2)[C@@H](c2ccc(Cl)cc2)N(CC2CC2)C1=O (single isomer, unassigned) [Example 96] the IC50 was 1100 nM.
Compound O=C(O)CC1O[C@H](c2cc(F)cc(F)c2)[C@@H](c2ccc(Cl)cc2)N(CC2CC2)C1=O (single isomer, unassigned) [Example 97] has an IC50 of 500 nM.
N#Cc1cc(F)cc([C@H]2OC(CC(=O)O)C(=O)N(CC3CC3)[C@@H]2c2ccc(Cl)cc2)c1 (single isomer, unassigned) [Example 98] showed an IC50 of 1800 nM.
N#Cc1cc(F)cc([C@H]2OC(CC(=O)O)C(=O)N(CC3CC3)[C@@H]2c2ccc(Cl)cc2)c1 (single isomer, unassigned) [Example 99] gave an IC50 of 1100 nM.
Work on O=C(O)CC1O[C@H](c2cc(Cl)ccc2F)[C@@H](c2ccc(Cl)cc2)N(CC2CC2)C1=O (single isomer, unassigned) [Example 100] yielded an IC50 of 1100 nM.
For O=C(O)CC1O[C@H](c2cc(Cl)ccc2F)[C@@H](c2ccc(Cl)cc2)N(CC2CC2)C1=O (single isomer, unassigned) [Example 101], the IC50 was 600 nM.
With Cc1cccc([C@H]2OC(CC(=O)O)C(=O)N(CC3CC3)[C@@H]2c2ccc(Cl)cc2)c1 (single isomer, unassigned) [Example 102] the IC50 was 6500 nM.
For Cc1cccc([C@H]2OC(CC(=O)O)C(=O)N(CC3CC3)[C@@H]2c2ccc(Cl)cc2)c1 (single isomer, unassigned) [Example 103], the IC50 was 3400 nM.
